Reference: US8541572B2

Tested on: not listed separately
Assay: Area under the curve determination of plasma levels in rats (rrAUC)
Type: in vivo
Conditions: rat, oral 10 mg/kg, plasma 0.5-6 h; read-out: RR AUC (nM · h), rapid rat AUC (rrAUC)

Row | SMILES | AUC
1 | COc1ccc2c(c1)C(=O)N(C[C@@]1(C#Cc3ccc(F)c(C(O)(O)C(F)(F)F)c3)NC(=O)NC1=O)C2 [Compound 2251] | 0.171 µM·h
2 | COc1ccc2c(c1)C(=O)N(C[C@@]1(C#Cc3ccc([C@H]4CCC(=O)N4)cc3)NC(=O)NC1=O)C2 [Compound 2259] | 0.126 µM·h
3 | COc1ccc2c(c1)C(=O)N(C[C@@]1(C#Cc3ccc(C(=NO)N4CCOCC4)cc3)NC(=O)NC1=O)C2 [Compound 941] | 0.058 µM·h
4 | COc1ccc2c(c1)C(=O)N(C[C@@]1(C#Cc3ccc(C4(C)NC(=O)NC4=S)cc3)NC(=O)NC1=O)C2 (stereo partly shown) [Compound 2258] | 0.438 µM·h
5 | CCN1CCN(Cc2ccc(C#C[C@]3(CN4Cc5ccc(OC)cc5C4=O)NC(=O)NC3=O)cc2)CC1 [Compound 933] | 0.024 µM·h

The next lines start with the values.

Row | AUC | SMILES
6 | 0.187 µM·h | COc1ccc2c(c1)C(=O)N(C[C@@]1(C#Cc3cccnc3-c3cnn(C)c3)NC(=O)NC1=O)C2 [Compound 2263]
7 | 0.53 µM·h | COc1ccc2c(c1)C(=O)N(C[C@@]1(C#Cc3ccc4c(c3)CC[C@]43NC(=O)NC3=O)NC(=O)NC1=O)C2 [Compound 2313]
8 | 0.271 µM·h | COc1ccc2c(c1)C(=O)N(C[C@@]1(C#Cc3ccc(-c4ccccc4O)nc3)NC(=O)NC1=O)C2 [Compound 2277]
9 | 16.4 µM·h | COc1ccc2c(c1F)C(=O)N(C[C@@]1(C#Cc3ccc(C)nc3)NC(=O)NC1=O)C2 [Compound 2274]
10 | 0.218 µM·h | COc1ccc2c(c1)C(=O)N(C[C@@]1(C#Cc3ccc4c(c3)CC[C@@]43NC(=O)NC3=O)NC(=O)NC1=O)C2 [Compound 2314]
11 | 0.768 µM·h | COc1ccc2c(c1)C(=O)N(C[C@@]1(C#Cc3ccc(C(O)(O)C(F)(F)F)cc3)NC(=O)NC1=O)C2 [Compound 2252]
12 | 3.17 µM·h | CON=C(c1ccc(C#C[C@]2(CN3Cc4ccc(OC)cc4C3=O)NC(=O)NC2=O)cc1)N1CCOCC1 [Compound 932]
13 | 0.924 µM·h | COc1ccc2c(c1)C(=O)N(C[C@@]1(C#Cc3ccc(-c4cnn(C)c4)nc3)NC(=O)NC1=O)C2 [Compound 2269]

Same assay, conditions: rat, oral 10 mg/kg, plasma 0.5-6 h post-dosing; read-out: RR AUC

Row | SMILES | AUC
14 | COc1ccc2c(c1)C(=O)N(C[C@@]1(C#Cc3ccc(-c4noc(C(C)C)n4)cc3)NC(=O)NC1=O)C2 [Compound 1505] | 0.243 µM·h
15 | COc1ccc2c(c1)C(=O)N(C[C@@]1(C#Cc3ccc(N4C(=O)CCC4C(=O)NC4CC4)cc3)NC(=O)NC1=O)C2 (stereo partly shown) [Compound 1902] | 0.025 µM·h
16 | COc1ccc2c(c1)C(=O)N(C[C@@]1(C#Cc3ccc4c(c3)CN(C)C(=O)N4)NC(=O)NC1=O)C2 [Compound 306] | 0.012 µM·h
17 | COc1ccc2c(c1F)C(=O)N(C[C@@]1(C#Cc3cncc(F)c3)NC(=O)NC1=O)C2 [Compound 1310] | 1.77 µM·h
18 | COc1ccc2c(c1)C(=O)N(C[C@@]1(C#Cc3ccc(C(N)C(F)(F)F)cc3)NC(=O)NC1=O)C2 (stereo partly shown) [Compound 300] | 2.6 µM·h
19 | COc1ccc2c(c1)C(=O)N(C[C@@]1(C#Cc3ccc(-c4cc(N)n(C)n4)cc3)NC(=O)NC1=O)C2 [Compound 709] | 0.357 µM·h
20 | COc1ccc2c(c1)C(=O)N(C[C@@]1(C#Cc3ccc4c(N)nn(C)c4c3)NC(=O)NC1=O)C2 [Compound 718] | 0.012 µM·h
21 | COc1ccc2c(c1F)C(=O)N(C[C@@]1(C#Cc3ccc(C4(O)CCNCC4)cc3)NC(=O)NC1=O)C2 [Compound 1701] | 0.041 µM·h
22 | COc1ccc2c(c1)C(=O)N(C[C@@]1(C#Cc3cc(Cl)cnc3N)NC(=O)NC1=O)C2 [Compound 2248] | 4.04 µM·h

Continued, values first:

Row | AUC | SMILES
23 | 0.38 µM·h | COc1ccc2c(c1Cl)C(=O)N(CC1(C#Cc3cccnc3)NC(=O)NC1=O)C2 (stereo not shown) [Compound 2247]
24 | 7.59 µM·h | COc1ccc2c(c1)C(=O)N(C[C@@]1(C#Cc3ccc4c(C)n[nH]c4c3)NC(=O)NC1=O)C2 [Compound 723]
25 | 0.011 µM·h | COc1ccc2c(c1)C(=O)N(C[C@@]1(C#Cc3ccc(C(O)C4CCN(C)CC4)cc3)NC(=O)NC1=O)C2 (stereo partly shown) [Compound 500]
26 | 0.213 µM·h | COc1ccc2c(c1F)C(=O)N(C[C@@]1(C#Cc3ccc(N4C(=O)CCC4C(=O)NC4CC4)cc3)NC(=O)NC1=O)C2 (stereo partly shown) [Compound 1904]
27 | 0.082 µM·h | COc1ccc2c(c1)C(=O)N(C[C@@]1(C#Cc3ccc4c(c3)c(N)nn4C)NC(=O)NC1=O)C2 [Compound 746]
28 | 0.035 µM·h | COc1ccc2c(c1)C(=O)N(C[C@@]1(C#Cc3nc(N4C[C@H](O)CC4=O)ccc3OC)NC(=O)NC1=O)C2 [Compound 1503]
29 | 5.64 µM·h | COc1ccc2c(c1F)C(=O)N(C[C@@]1(C#Cc3ccc(C4(C)NC(=O)NC4=O)c(F)c3)NC(=O)NC1=O)C2 (stereo partly shown) [Compound 1302]

Tested on: TNF-α production in LPS-stimulated human whole blood
Assay: Inhibition of TNF-α production from human whole blood (hWBA)
Type: cell-based
Conditions: Homo sapiens, IC50 for TNF-α production, LPS-stimulated human whole blood; read-out: hWBA

Row | IC50 | SMILES
30 | 379 nM | COC(=O)Cc1ccc(C#C[C@]2(CN3Cc4ccc(OC)cc4C3=O)NC(=O)NC2=O)cc1 [Compound 2284]
31 | 1000 nM | COc1ccc2c(c1)C(=O)N(C[C@]1(C#Cc3cncc(C(=O)NN)c3)NC(=O)NC1=O)C2 [Compound 2256]
32 | 278 nM | COc1ccc2c(c1)C(=O)N(C[C@@]1(C#Cc3ccc(C(=NO)N4CCN(c5ccccc5)CC4)cc3)NC(=O)NC1=O)C2 [Compound 928]
33 | 3550 nM | COc1ccc2c(c1)C(=O)N(C[C@@]1(C#Cc3ccc4c(c3)C(C)Oc3cccnc3-4)NC(=O)NC1=O)C2 (stereo partly shown) [Compound 929]
34 | 1390 nM | COc1ccc2c(c1)C(=O)N(C[C@@]1(C#Cc3ccc(N4CCCCC4=O)cc3)NC(=O)NC1=O)C2 [Compound 2295]

Same assay, conditions: Homo sapiens, IC50 for inhibition of TNF-α production, LPS-stimulated human whole blood; read-out: hWBA

Row | IC50 | SMILES
35 | 1130 nM | COc1ccc2c(c1)C(=O)N(C[C@@]1(C#Cc3cnc(C)nc3O)NC(=O)NC1=O)C2 [Compound 2231]
36 | 119 nM | COc1ccc2c(c1F)C(=O)N(C[C@@]1(C#Cc3ccc(-c4nc(-c5cccnc5)ccc4O)c(F)c3)NC(=O)NC1=O)C2 [Compound 1002]
37 | 1140 nM | COc1ccc2c(c1)C(=O)N(C[C@@]1(C#Cc3ccc(-n4cncn4)cc3)NC(=O)NC1=O)C2 [Compound 1170]

Same assay, conditions: Homo sapiens, read-out: hWBA (nM)

Row | SMILES | IC50
38 | COc1ccc2c(c1F)C(=O)N(C[C@@]1(C#Cc3ccc(C4(C#N)CCN(C)CC4)cc3)NC(=O)NC1=O)C2 [Compound 1313] | 669 nM

Same assay, conditions: IC50 for TNF-α production, LPS-stimulated human whole blood; read-out: hWBA

Row | SMILES | IC50
39 | COc1ccc2c(c1)C(=O)N(C[C@@]1(C#Cc3ccc(C(=NO)N4CCOCC4)cc3)NC(=O)NC1=O)C2 [Compound 941] | 100 nM
40 | COc1ccc2c(c1)C(=O)N(C[C@@]1(C#Cc3ccc(C4(C)NC(=O)NC4=S)cc3)NC(=O)NC1=O)C2 (stereo partly shown) [Compound 2258] | 398 nM
41 | CCN1CCN(Cc2ccc(C#C[C@]3(CN4Cc5ccc(OC)cc5C4=O)NC(=O)NC3=O)cc2)CC1 [Compound 933] | 238 nM
42 | COc1ccc2c(c1)C(=O)N(C[C@@]1(C#Cc3ccc(C(=NO)N4CCCC4)cc3)NC(=O)NC1=O)C2 [Compound 942] | 641 nM
43 | COc1ccc2c(c1)C(=O)N(C[C@@]1(C#Cc3ccc(C(=NO)N4CCSCC4)cc3)NC(=O)NC1=O)C2 [Compound 912] | 153 nM
44 | COc1ccc2c(c1)C(=O)N(C[C@@]1(C#Cc3cncc(-c4noc(C(N)=O)n4)c3)NC(=O)NC1=O)C2 [Compound 2254] | 713 nM
45 | COc1ccc2c(c1)C(=O)N(C[C@@]1(C#Cc3ccc(C4(C)NC(=O)NC4=O)s3)NC(=O)NC1=O)C2 (stereo partly shown) [Compound 907] | 208 nM

Continued, values first:

Row | IC50 | SMILES
46 | 2220 nM | COc1ccc2c(c1)C(=O)N(C[C@@]1(C#Cc3cccnc3-c3cnn(C)c3)NC(=O)NC1=O)C2 [Compound 2263]
47 | 2090 nM | COc1ccc2c(c1)C(=O)N(C[C@@]1(C#Cc3ccc(-c4ccccc4O)nc3)NC(=O)NC1=O)C2 [Compound 2277]
48 | 396 nM | COc1ccc2c(c1F)C(=O)N(C[C@@]1(C#Cc3ccc(C)nc3)NC(=O)NC1=O)C2 [Compound 2274]
49 | 258 nM | COc1ccc2c(c1)C(=O)N(C[C@@]1(C#Cc3ccc(C(O)(O)C(F)(F)F)cc3)NC(=O)NC1=O)C2 [Compound 2252]
50 | 76 nM | COc1ccc2c(c1)C(=O)N(C[C@@]1(C#Cc3ccc(C(=NO)N4CCN(C5CCCCC5)CC4)cc3)NC(=O)NC1=O)C2 [Compound 926]
51 | 86 nM | COc1ccc2c(c1)C(=O)N(C[C@@]1(C#Cc3ccc(C(=NO)N4CCC(=O)CC4)cc3)NC(=O)NC1=O)C2 [Compound 945]
52 | 87 nM | CCN1CCN(C(=NO)c2ccc(C#C[C@]3(CN4Cc5ccc(OC)cc5C4=O)NC(=O)NC3=O)cn2)CC1 [Compound 954]
53 | 531 nM | COc1ccc2c(c1)C(=O)N(C[C@@]1(C#Cc3csc(C4(C)NC(=O)NC4=O)c3)NC(=O)NC1=O)C2 (stereo partly shown) [Compound 908]
54 | 327 nM | COc1ccc2c(c1)C(=O)N(C[C@@]1(C#Cc3ccc(C(=NO)N4[C@H](C)CNC[C@@H]4C)cc3)NC(=O)NC1=O)C2 [Compound 2294]

Same assay, conditions: IC50 for inhibition of TNF-α production, LPS-stimulated human whole blood; read-out: hWBA

Row | SMILES | IC50
55 | COc1ccc2c(c1F)C(=O)N(C[C@@]1(C#Cc3cc(F)cnc3Cl)NC(=O)NC1=O)C2 [Compound 1312] | 935 nM
56 | COCCN1CCN(c2ccc(OC)c(C#C[C@]3(CN4Cc5ccc(OC)cc5C4=O)NC(=O)NC3=O)n2)CC1 [Compound 1507] | 5710 nM
57 | COc1ccc2c(c1F)C(=O)N(C[C@@]1(C#Cc3ccc(-c4nc(N5CCC(=O)CC5)ccc4O)cc3)NC(=O)NC1=O)C2 [Compound 1003] | 124 nM
58 | COc1ccc2c(c1)C(=O)N(C[C@@]1(C#Cc3ccc(C(=NO)C4CCN(C)CC4)cc3)NC(=O)NC1=O)C2 [Compound 2246] | 40 nM
59 | COc1ccc2c(c1F)C(=O)N(C[C@@]1(C#Cc3ccc(CN4CCSCC4)nc3)NC(=O)NC1=O)C2 [Compound 966] | 588 nM
60 | COc1ccc2c(c1)C(=O)N(C[C@@]1(C#Cc3ccc(C(CN)N4CCC(NC(=O)OC(C)(C)C)C4)cc3)NC(=O)NC1=O)C2 (stereo partly shown) [Compound 1703] | 316 nM

Results, then the compound that gave them:

Row | IC50 | SMILES
61 | 1000 nM | COc1ccc2c(c1Cl)C(=O)N(CC1(C#Cc3cccnc3)NC(=O)NC1=O)C2 (stereo not shown) [Compound 2247]
62 | 2950 nM | COc1ccc2c(c1)C(=O)N(C[C@@]1(C#Cc3ccc4c(C)n[nH]c4c3)NC(=O)NC1=O)C2 [Compound 723]
63 | 244 nM | COc1ccc2c(c1)C(=O)N(C[C@@]1(C#Cc3ccc(C(O)C4CCN(C)CC4)cc3)NC(=O)NC1=O)C2 (stereo partly shown) [Compound 500]
64 | 278 nM | COc1ccc2c(c1F)C(=O)N(C[C@@]1(C#Cc3ccc(N4C(=O)CCC4C(=O)NC4CC4)cc3)NC(=O)NC1=O)C2 (stereo partly shown) [Compound 1904]
65 | 698 nM | COc1ccc2c(c1F)C(=O)N(C[C@@]1(C#Cc3ccc(CN4CCOCC4)nc3)NC(=O)NC1=O)C2 [Compound 965]
66 | 419 nM | COc1ccc2c(c1)C(=O)N(C[C@@]1(C#Cc3ccc(C4(CN5Cc6cc(O)ccc6C5=O)NC(=O)NC4=O)cc3)NC(=O)NC1=O)C2 (stereo partly shown) [Compound 2216]
67 | 7270 nM | COc1ccc2c(c1)C(=O)N(C[C@@]1(C#Cc3nc(N4CCN(c5ccncc5)CC4)ccc3OC)NC(=O)NC1=O)C2 [Compound 2205]
68 | 269 nM | CCNc1nnc(-c2ccc(C#C[C@]3(CN4Cc5ccc(OC)cc5C4=O)NC(=O)NC3=O)cc2)o1 [Compound 1920]
69 | 766 nM | COc1ccc2c(c1)C(=O)N(C[C@@]1(C#Cc3ccc(-c4ccc(C)nc4O)nc3)NC(=O)NC1=O)C2 [Compound 1301]
70 | 811 nM | COc1ccc2c(c1)C(=O)N(C[C@@]1(C#Cc3cncc(-c4csc(N)n4)c3)NC(=O)NC1=O)C2 [Compound 2233]
71 | 4980 nM | COc1ccc2c(c1F)C(=O)N(C[C@@]1(C#Cc3ccc(CN4CCc5ccc(F)cc5C4)nc3)NC(=O)NC1=O)C2 [Compound 968]
72 | 782 nM | CCN1CCN(Cc2ccc(C#C[C@]3(CN4Cc5ccc(OC)cc5C4=O)NC(=O)NC3=O)cn2)CC1 [Compound 977]
73 | 80.2 nM | COc1ccc2c(c1)C(=O)N(C[C@@]1(C#Cc3ccc(-c4nc(-c5cccnc5)ccc4O)cc3)NC(=O)NC1=O)C2 [Compound 971]
